Laboratory results published in patent publication US20030095958A1, “Inhibitors of bace” (priority 2001, published 2003).

These compounds were tested against BACE (Homo sapiens, UniProt P56817) (assay: Ki Determination for the Inhibition of BACE (FS-1 peptide fluorescence cleavage assay)). Conditions: apparent Ki; 50 nM BACE, 10 μM FS-1 substrate, 0.1M sodium acetate pH 4.5.
BACE, sequence (P56817 46-501): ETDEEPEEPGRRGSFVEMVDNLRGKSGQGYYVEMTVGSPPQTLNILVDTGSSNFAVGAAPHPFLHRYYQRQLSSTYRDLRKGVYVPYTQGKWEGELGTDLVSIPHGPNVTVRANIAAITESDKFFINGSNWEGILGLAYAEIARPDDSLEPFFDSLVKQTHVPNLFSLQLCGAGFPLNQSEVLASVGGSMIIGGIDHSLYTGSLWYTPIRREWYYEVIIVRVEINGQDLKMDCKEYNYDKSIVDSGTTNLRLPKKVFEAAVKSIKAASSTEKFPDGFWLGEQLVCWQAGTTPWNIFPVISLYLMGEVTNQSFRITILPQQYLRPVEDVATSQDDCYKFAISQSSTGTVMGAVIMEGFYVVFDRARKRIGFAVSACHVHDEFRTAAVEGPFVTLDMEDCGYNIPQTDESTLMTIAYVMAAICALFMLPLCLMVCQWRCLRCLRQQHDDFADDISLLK
Assay type: biochemical
Summary of the method: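 Apparent Ki values derive from fitting fluorescence progress data (355 nm excitation, 495 nm emission) of FS-1 peptide cleavage to an integrated competitive tight-binding model. Reactions held 50 nM BACE, 10 μM substrate and inhibitor in 2% DMSO, pH 4.5 acetate buffer, with a 15 min enzyme-compound preincubation at room temperature.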
Work on Fc1ccccc1-c1ccc(C2=CCNCC2)c(COc2ccccc2C(F)(F)F)c1 [Compound 372, 4-[2′-Fluoro-3-(2-trifluoromethyl-phenoxymethyl)-biphenyl-4-yl]-1,2,3,6-tetrahydro-pyridine] yielded a Ki of under 3 µM. FC(F)(F)c1ccccc1OCc1cc(-c2ccccc2Cl)ccc1C1=CCNCC1 [Compound 373, 4-[2′-Chloro-3-(2-trifluoromethyl-phenoxymethyl)-biphenyl-4-yl]-1,2,3,6-tetrahydro-pyridine] was tested, and the Ki was under 3 µM. Cc1ccccc1-c1ccc(C2=CCNCC2)c(COc2ccccc2C(F)(F)F)c1 [Compound 374, 4-[2′-Methyl-3-(2-trifluoromethyl-phenoxymethyl)-biphenyl-4-yl]-1,2,3,6-tetrahydro-pyridine] was tested, and the Ki was under 3 µM. FC(F)(F)c1ccccc1OCc1cc(-c2ccccc2C(F)(F)F)ccc1C1=CCNCC1 [Compound 375, 4-[2′-Trifluoromethyl-3-(2-trifluoromethyl-phenoxymethyl)-biphenyl-4-yl]-1,2,3,6-tetrahydro-pyridine] was tested, and the Ki was under 3 µM. For Nc1ccccc1-c1ccc(C2=CCNCC2)c(COc2ccccc2C(F)(F)F)c1 [Compound 376, 4′-(1,2,3,6-Tetrahydro-pyridin-4-yl)-3′-(2-trifluoromethyl-phenoxymethyl)-biphenyl-2-ylamine], the Ki was 3 to 30 µM. For FC(F)(F)c1ccccc1OCc1cc(Br)ccc1C1=CCNCC1 [Compound 377, 4-[4-Bromo-2-(2-trifluoromethyl-phenoxymethyl)-phenyl]-1,2,3,6-tetrahydro-pyridine], the Ki was 3 to 30 µM. In the case of OCc1ccccc1-c1ccc(C2=CCNCC2)c(COc2ccccc2C(F)(F)F)c1 [Compound 378, [4′-(1,2,3,6-Tetrahydro-pyridin-4-yl)-3′-(2-trifluoromethyl-phenoxymethyl)-biphenyl-2-yl]-methanol], the Ki is reported as 3 to 30 µM. Compound O=C(OCc1ccccc1-c1ccc(C2=CCNCC2)c(COc2ccccc2C(F)(F)F)c1)c1ccccc1 [Compound 379, Benzoic acid 4′-(1,2,3,6-tetrahydro-pyridin-4-yl)-3′-(2-trifluoromethyl-phenoxymethyl)-biphenyl-2-yl methyl ester] has a Ki of under 3 µM. With O=C(OCc1ccccc1-c1ccc(C2=CCNCC2)c(COc2ccccc2C(F)(F)F)c1)c1ccccc1C(F)(F)F [Compound 380, 2-Trifluoromethyl-benzoic acid 4′-(1,2,3,6-tetrahydro-pyridin-4-yl)-3′-(2-trifluoromethyl-phenoxymethyl)-biphenyl-2-ylmethyl ester] the Ki was under 3 µM. COC(=O)c1cc(C2=CCNCC2)c(COc2ccccc2C(F)(F)F)cc1Br [Compound 381, 2-Bromo-5-(1,2,3,6-tetrahydro-pyridin-4-yl)-4-(2-trifluoromethyl-phenoxymethyl)-benzoic acid methyl ester] showed a Ki of 3 to 30 µM. COC(=O)c1cc(C2=CCNCC2)c(COc2ccccc2C(F)(F)F)cc1C1=CCNCC1 [Compound 382, 2,5-Bis-(1,2,3,6-tetrahydro-pyridin-4-yl)-4-(2-trifluoromethyl-phenoxymethyl)-benzoic acid methyl ester] was tested, and the Ki was 3 to 30 µM. Work on COC(=O)c1cc(C2=CCNCC2)c(COc2ccccc2C(F)(F)F)cc1-c1ccoc1 [Compound 383, 2-Furan-3-yl-5-(1,2,3,6-tetrahydro-pyridin-4-yl)-4-(2-trifluoromethyl-phenoxymethyl)-benzoic acid methyl ester] yielded a Ki of 3 to 30 µM. Work on O=C(OCc1ccccc1-c1ccc(C2=CCNCC2)c(COc2ccccc2C(F)(F)F)c1)c1cccnc1Cl [Compound 384, 2-Chloro-nicotinic acid 4′-(1,2,3,6-tetrahydro-pyridin-4-yl)-3′-(2-trifluoromethyl-phenoxymethyl)-biphenyl-2-ylmethyl ester] yielded a Ki of under 3 µM. With O=C(OCc1cc(C2=CCNCC2)c(COc2ccccc2C(F)(F)F)cc1-c1ccoc1)c1cccnc1 [Compound 385, Nicotinic acid 2-furan-3-yl-5-(1,2,3,6-tetrahydro-pyridin-4-yl)-4-(2-trifluoromethyl-phenoxymethyl)-benzyl ester] the Ki was under 3 µM. Work on O=C(OCc1cc(C2=CCNCC2)c(COc2ccccc2C(F)(F)F)cc1-c1ccoc1)c1cccnc1Cl [Compound 386, 2-Chloro-nicotinic acid 2-furan-3-yl-5-(1,2,3,6-tetrahydro-pyridin-4-yl)-4-(2-trifluoromethyl-phenoxymethyl)-benzyl ester] yielded a Ki of under 3 µM. Work on OCc1cc(C2=CCNCC2)c(COc2ccccc2C(F)(F)F)cc1-c1ccoc1 [Compound 387, [2-Furan-3-yl-5-(1,2,3,6-tetrahydro-pyridin-4-yl)-4-(2-trifluoromethyl-phenoxymethyl)-phenyl]-methanol] yielded a Ki of 3 to 30 µM. CN1CC=C(c2cc(CO)c(-c3ccoc3)cc2COc2ccccc2C(F)(F)F)CC1 [Compound 388, [2-Furan-3-yl-5-(1-methyl-1,2,3,6-tetrahydro-pyridin-4-yl)-4-(2-trifluoromethyl-phenoxymethyl)-phenyl]-methanol] was tested, and the Ki was 3 to 30 µM. For O=C(OCc1cc(C2=CCNCC2)c(COc2ccccc2C(F)(F)F)cc1-c1ccoc1)c1ccccn1 [Compound 389, Pyridine-2-carboxylic acid 2-furan-3-yl-5-(1,2,3,6-tetrahydro-pyridin-4-yl)-4-(2-trifluoromethyl-phenoxymethyl)-benzyl ester], the Ki was 3 to 30 µM. Work on O=C(OCc1cc(C2=CCNCC2)c(COc2ccccc2C(F)(F)F)cc1-c1ccoc1)c1ccncc1 [Compound 390, Isonicotinic acid 2-furan-3-yl-5-(1,2,3,6-tetrahydro-pyridin-4-yl)-4-(2-trifluoromethyl-phenoxymethyl)-benzyl ester] yielded a Ki of under 3 µM. With c1ccc(-c2ccc(C3CCNCC3OCc3ccc4ccccc4c3)cc2)cc1 (stereo not shown) [Compound 401] the Ki was under 3 µM. O=C(Nc1ccc2ccccc2c1)C1CNCCC1c1ccc(-c2ccccc2)cc1 (stereo not shown) [Compound 402] gave a Ki of under 3 µM. Compound O=C(Nc1ccc2ccccc2c1)NC1CNCCC1c1ccc(-c2ccccc2)cc1 (stereo not shown) [Compound 403] has a Ki of 3 to 30 µM. For CC(NC(=O)C1CNCCC1c1ccc(-c2ccccc2)cc1)c1cccc2ccccc12 (stereo not shown) [Compound 404], the Ki was 3 to 30 µM. CC(NC(=O)C1CNCCC1c1ccc(-c2ccccc2)cc1)c1cccc2ccccc12 (stereo not shown) [Compound 405] showed a Ki of 3 to 30 µM. For CC(NC(=O)C1CNCCC1c1ccc(-c2ccccc2)cc1)c1cccc2ccccc12 (stereo not shown) [Compound 406], the Ki was 3 to 30 µM. In the case of CC(NC(=O)C1CNCCC1c1ccc(-c2ccccc2)cc1)c1cccc2ccccc12 (stereo not shown) [Compound 407], the Ki is reported as 3 to 30 µM. OC1CNCC(COc2ccc3ccccc3c2)C1(O)c1ccc(-c2ccccc2)cc1 (stereo not shown) [Compound 412] was tested, and the Ki was 3 to 30 µM. FC(F)(F)c1cccc(COC2CNCC(COc3ccc4ccccc4c3)C2c2ccc(-c3ccccc3)cc2)c1 (stereo not shown) [Compound 413] gave a Ki of under 3 µM. COc1ccc2c(c1)c1c(n2C(=O)c2ccc3ccccc3c2)CNCC1 [Compound 502, (6-Methoxy-1,2,3,4-tetrahydro-b-carbolin-9-yl)-naphthalen-2-yl-methanone] gave a Ki of over 30 µM. With COc1ccc2c(c1)c1c(n2Cc2ccc3ccccc3c2)CNCC1 [Compound 503, 6-Methoxy-9-naphthalen-2-ylmethyl-2,3,4,9-tetrahydro-1H-b-carboline] the Ki was over 30 µM. O=C(c1cccc2ccccc12)n1c2c(c3cc(OCc4ccccc4C(F)(F)F)ccc31)CCNC2 [Compound 504, Naphthalen-1-yl-[6-(2-trifluoromethyl-benzyloxy)-1,2,3,4-tetrahydro-b-carbolin-9-yl]-methanone] was tested, and the Ki was under 3 µM. In the case of FC(F)(F)c1ccccc1COc1ccc2c(c1)c1c(n2Cc2cccc3ccccc23)CNCC1 [Compound 505, 9-Naphthalen-1-ylmethyl-6-(2-trifluoromethyl-benzyloxy)-2,3,4,9-tetrahydro-1H-b-carboline], the Ki is reported as under 3 µM. In the case of O=C(c1cccc2ccccc12)n1c2c(c3cc(OCc4ccc(C(F)(F)F)cc4)ccc31)CCNC2 [Compound 506, Naphthalen-1-yl-[6-(4-trifluoromethyl-benzyloxy)-1,2,3,4-tetrahydro-b-carbolin-9-yl]-methanone], the Ki is reported as under 3 µM. O=C(c1ccc2ccccc2c1)n1c2c(c3cc(OCc4cccc(C(F)(F)F)c4)ccc31)CCNC2 [Compound 507, Naphthalen-2-yl-[6-(3-trifluoromethyl-benzyloxy)-1,2,3,4-tetrahydro-b-carbolin-9-yl]-methanone] showed a Ki of under 3 µM. With O=C(c1cccc2ccccc12)n1c2c(c3cc(OCc4cccc(C(F)(F)F)c4)ccc31)CCNC2 [Compound 508, Naphthalen-1-yl-[6-(3-trifluoromethyl-benzyloxy)-1,2,3,4-tetrahydro-b-carbolin-9-yl]-methanone] the Ki was under 3 µM. Compound FC(F)(F)c1cccc(COc2ccc3c(c2)c2c(n3Cc3cccc4ccccc34)CNCC2)c1 [Compound 509, 9-Naphthalen-1-ylmethyl-6-(3-trifluoromethyl-benzyloxy)-2,3,4,9-tetrahydro-1H-b-carboline] has a Ki of under 3 µM. With O=C(c1cccc2ccccc12)n1c2c(c3cc(OCc4cc(C(F)(F)F)ccc4Cl)ccc31)CCNC2 [Compound 510, [6-(2-Chloro-5-trifluoromethyl-benzyloxy)-1,2,3,4-tetrahydro-b-carbolin-9-yl]-naphthalen-1-yl-methanone] the Ki was under 3 µM. For O=C(c1ccc2ccccc2c1)n1c2c(c3cc(OCc4cc(C(F)(F)F)ccc4Cl)ccc31)CCNC2 [Compound 511, [6-(2-Chloro-5-trifluoromethyl-benzyloxy)-1,2,3,4-tetrahydro-b-carbolin-9-yl]-naphthalen-2-yl-methanone], the Ki was under 3 µM. In the case of FC(F)Oc1ccc(COc2ccc3c(c2)c2c(n3Cc3cccc4ccccc34)CNCC2)cc1 [Compound 512, 6-(4-Difluoromethoxy-benzyloxy)-9-naphthalen-1-ylmethyl-2,3,4,9-tetrahydro-1H-b-carboline], the Ki is reported as under 3 µM. FC(F)Oc1ccc(COc2ccc3c(c2)c2c(n3Cc3ccc4ccccc4c3)CNCC2)cc1 [Compound 513, 6-(4-Difluoromethoxy-benzyloxy)-9-naphthalen-2-ylmethyl-2,3,4,9-tetrahydro-1H-b-carboline] showed a Ki of under 3 µM.
